Experimental data from patent publication US20090162457A1, “RESVERATROL AND/OR GRAPE LEAF EXTRACT AS I. A. ENDURANCE IMPROVER, ANTI-AGING AGENT, MUSCLE STRENGTH IMPROVER” (KAO CORPORATION, priority 2005, published 2009).

Assays:
Type in all cases: in vivo
Balb/c male mice = experiment: Mice maximal swimming time measurement in an adjustable-current swimming pool (endurance-improving/anti-fatigue effect); settings: Test 1; for Maximal swimming time: flow rate 7 L/min
Experimental: An endurance-improving/anti-fatigue effect was evaluated in accordance with the mice maximal swimming time measurement (Reference: Am. J. Physiol. Regul. Integr. Comp. Physiol., 288, 708-715 (2005)) in an adjustable-current swimming pool. The pool used for this test made of transparent acryl (90 cm long×45 cm wide×45 cm deep) was filled with water to the depth of 38 cm and maintained at 34° C. by a heater. The current in the pool was generated by circulating water with a pump (“C-P60H”, product of Hitachi, Ltd.). The flow rate was regulated by opening and closing of a valve of a water flow meter (product of Tokyo Flow Meter Kenkyujo) connected to the pump. The flow rate was monitored by a current meter (“SV-101-25S”, product of Sanko Seimitsu Kogyo). As a test animal, five-week-old Balb/c male mice (Charles River) were used. They were habituated by preliminary rearing for 1 week under a predetermined rearing environment (23±2° C., light period: from 7:00 am to 7:00 pm). For the next one week, training was performed three times a week in order to accustom the mice to swimming (swimming for 30 minutes at a flow rate of 5 L/min on Day 1, and for 30 minutes at a flow rate of 6 L/min on Day 3 and Day 5). […] To prevent a difference between groups in the maximal swimming time, mice were classified into two groups each consisting of 8 mice, that is, a test diet group and control diet group. During this term, maximal swimming time measurement (7 L/min) and training (6 L/min, 30 minutes) were each conducted once a week.

[1] = system: SAM-P1 male mice (senescence accelerated mice); experiment: Total muscle weight (gastrocnemius, soleus, plantaris) per body weight
Experimental: (§1) After preliminary individual rearing of 13-week-old SAM-P1 male mice (senescence accelerated mice) and SAM-R1 male mice (ordinarily aged mice) for 5 weeks, they were habituated to treadmill running and their maximal running time was measured. The measurement was started after the mice were kept sedentary in the treadmill to accustom them to the environment. The belt speed was started at 10 m/min. The mice were caused to run for 5 minutes on the belt having a speed of 10 m/min, 5 minutes at a speed of 15 m/min, 60 minutes at a speed of […], 60 minutes at a speed of 22 m/min, 60 minutes at a speed of 24 m/min, 60 minutes at a speed of 26 m/min and then at a speed of 28 m/min. […] To avoid a difference in the maximal running time between strains, the mice were divided into three groups, that is, SAM-R1 control group, SAM-P1 control group, and SAM-P1 resveratrol group (each group consisting of 5 to 8 mice). Each mouse was exercised at 15 m/min for 30 minutes three times a week during the period of experiment. The maximal running time of each group was measured after rearing for 8 weeks. In addition, as energy metabolism at rest, oxygen consumption of each group was measured by breath analysis after rearing for 9 weeks. For this analysis, “Oxymax system” (product of Columbus Instruments) equipped with 8 chambers was used. […] From their weights, total muscle weight was determined.

[2] = system: SAM-P1 male mice (senescence accelerated mice); experiment: Maximum muscle strength of extensor digitorum longus muscle under electrical stimulation
Source text: After the preliminary individual rearing of 13-week-old SAM-P1 male mice (senescence accelerated mice) and SAM-R1 male mice (ordinarily aged mice) for 5 weeks, they were habituated to treadmill running. Then, they were divided into SAM-R1 control group, SAM-P1 control group, SAM-P1 exercise group, SAM-P1 resveratrol group/exercise (each group consisting of 5 mice) They were reared for 13 weeks on a diet prepared in accordance with the formulation shown in Table 9. Exercise at 15 m/min was imposed to each mouse of the exercise group for 30 minutes three times a week during the period of experiment. After rearing for 13 weeks, the mice were sacrificed for dissection. Their extensor digitorum longus muscle was fixed to a transducer (“FORT100”, product of World Precision Instruments, Inc.) in a Krebs solution (aeration condition: 95% oxygen, 5% carbon dioxide) of 37° C. and then, electrically stimulated (at 140 Hz for 0.5 msec), whereby the maximum muscle strength was measured.

[3] = system: SAM-P1 male mice (senescence accelerated mice); experiment: Maximal running time on treadmill (anti-aging effect, endurance)
Experimental: as §1

[4] = system: SAM-P1 male mice (senescence accelerated mice); experiment: Energy metabolism at rest: oxygen consumption by breath analysis (Oxymax system)
Experimental: as §1

Oc1ccc(C=Cc2cc(O)cc(O)c2)cc1 [Resveratrol, 3,4′,5-trihydroxy-stilbene]
Maximal swimming time (Balb/c male mice; after rearing for 10 weeks on diet with 0.2 mass % resveratrol, control diet 31.15 ± 2.57): 44.80 ± 4.56 min | Maximal swimming time compared with control diet group (in words) (Balb/c male mice; after rearing for 10 weeks, 0.2 mass % resveratrol in diet): significantly extended the maximal swimming time | Maximal swimming time (Balb/c male mice; before rearing (baseline), Balb/c male mice): 28.50 ± 1.75 min | Relative muscle weight (muscle weight per body weight) ([1]; after rearing for 10 weeks on feed with 0.2% resveratrol, SAM-P1 control 0.64 ± 0.02): 0.81 ± 0.07% | Muscle weight compared with SAM-P1 control group (in words) ([1]; after rearing for 10 weeks, 0.2% resveratrol in feed): significantly large compared with that of the SAM-P1 control group | Maximum muscle strength of extensor digitorum longus muscle ([2]; resveratrol (0.2% in feed) plus exercise, reared for 10 weeks per table title (13 weeks per text), SAM-P1 control 9.8 ± 0.3, SAM-P1 exercise 13.0 ± 1.8): 15.0 ± 1.8 g | Maximum muscle strength compared with SAM-P1 control group (in words) ([2]; resveratrol-containing feed (0.2%) plus exercise): significantly high | Maximal running time ([3]; after rearing for 8 weeks on feed with 0.2% resveratrol, SAM-P1 control 100.0 ± 5.8): 141.3 ± 19.7 min | Maximal running time compared with SAM-P1 control group (in words) ([3]; after rearing for 8 weeks, 0.2% resveratrol in feed): significantly long compared with that of the SAM-P1 control group | Oxygen consumption (average for 24 hours) ([4]; after rearing for 9 weeks on feed with 0.2% resveratrol, SAM-P1 control 46.9 ± 1.3): 57.1 ± 4.3 mL/min/kg | Oxygen consumption compared with SAM-P1 control group (in words) ([4]; after rearing for 9 weeks, 0.2% resveratrol in feed): significantly high compared with that of the SAM-P1 control group
